Results on 23 compounds are retold here after patent publication US8999990B2, “Inhibitors of the renal outer medullary potassium channel” (Merck Sharp & Dohme Corp., priority 2011, dated 2015).

The assay concerns the target T1, hROMK1 (Kir1.1) (Homo sapiens, UniProt P48048).
T1 construct: expressed in transfected cells
T1 sequence (P48048 1-391): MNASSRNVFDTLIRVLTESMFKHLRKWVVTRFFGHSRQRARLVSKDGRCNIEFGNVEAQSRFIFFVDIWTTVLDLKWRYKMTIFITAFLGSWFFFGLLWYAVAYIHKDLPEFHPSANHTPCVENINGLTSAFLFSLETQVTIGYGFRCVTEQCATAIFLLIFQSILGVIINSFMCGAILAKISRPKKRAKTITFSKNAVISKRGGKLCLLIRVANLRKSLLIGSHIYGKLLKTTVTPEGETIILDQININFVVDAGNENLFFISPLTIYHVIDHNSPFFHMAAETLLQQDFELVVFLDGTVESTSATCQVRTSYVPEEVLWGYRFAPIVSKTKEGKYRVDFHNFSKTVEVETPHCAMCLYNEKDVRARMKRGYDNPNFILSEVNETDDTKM
The experiment in a line: 86Rb+ Efflux Assay. The class given is cell-based. The conditions noted are these: CHO-DHFR- cells stably expressing hROMK1; 35 min incubation. On the procedure:
Several assays may be used to measure functional inhibition of the ROMK channel by compounds of the instant invention. One assay that was used to test the activity of compounds in the Examples is the functional ^86Rb^+ efflux assay described below, that measures the ability of ROMK to permeate ^86Rb^+, in the absence or presence of test compound. Under control conditions, cells loaded with ^86Rb^+ and incubated in Rb^+-free medium display a time-dependent efflux of the isotope, the rate of which depends on number of functional channels. When cells are incubated in the presence of a channel inhibitor, efflux of ^86Rb^+ is prevented in a concentration-dependent manner, and IC50 values of inhibition by compounds can be accurately determined. This assay has been established with cell lines expressing either human, rat or dog ROMK channels, and can operate in 96- or 384-well format. Importantly, the human, rat, and dog ^86Rb^+ efflux assays can be carried out in the presence of up to 100% serum allowing, therefore, an accurate estimation of the effect of protein binding on the inhibitory activity of compounds of interest. Another ROMK functional assay used to test the activity of compounds in the Examples (described below) makes use of the ability of thallium to permeate through open ROMK channels and increase the fluorescence of a dye previously loaded into the cells. Under control conditions, cells loaded with dye and exposed to thallium-containing medium display a time-dependent increase in fluorescence, the rate of which depends on number of functional channels. When cells are incubated in the presence of a channel inhibitor, the increase in fluorescence is attenuated in a concentration-dependent manner, and IC50 values of inhibition by compounds can be accurately determined. This assay has been established with cell lines expressing either human, or rat ROMK channels, and operates in 384-well format.
CHO-DHFR-cells stably expressing hROMK1 (Kir1.1) are grown at 37° C. in a 10% CO2 humidified incubator in Iscove's Modified Dulbecco's Medium (Gibco 12440) supplemented with HT Supplement, Penicillin/Streptomycin/Glutamine, G418 (500 μg/ml) and 10% FBS. Cells are seeded in Sterile and Tissue Culture Treated Packard CulturPlate White Opaque Microplates at a concentration of 5.0E5-7.0E5 cells/ml-PerkinElmer 6005680 (96-well); Corning 3707 (384 well) in complete media containing 1.5 μCi/ml Rubidium-86. Cells are incubated in 37° C.-10% CO2 incubator overnight. On the day of the experiment, the media is removed and cells are washed with low K assay buffer. ^86Rb^+ efflux is initiated after addition of assay buffer±test compound followed by 35 min incubation at room temperature. ROMK-sensitive component of efflux is defined in the presence of 10 mM BaCl2. Assay buffer is removed and transferred to a plate and cells are solubilized in the presence of SDS. Radioactivity associated with assay and cell plate is determined.
• 1. Remove cell media and wash cells with low K assay buffer (126.9 mM NaCl, 4.6 mM KCl, 2 mM CaCl2, 1 mM MgCl2, 10 mM Hepes/NaOH; pH 7.4) • 200 μl for 96-well plate; 70 μl for 384-well plate • 2. Add assay buffer (121.5 mM NaCl, 10 mM KCl, 2 mM CaCl2, 1 mM MgCl2, 10 mM Hepes/NaOH; pH 7.4)±test compound to cells • 100 μl for 96-well plate; 50 μl for 384-well plate • 3. Incubate at ambient temperature (22-24° C.) for 35 min • 4. Remove assay buffer add it to a 96- or 384-well plate containing Microscint-20 • 96-well Plate: 100 μl buffer, 170 μl MicroScint 20 (for TopCount) • 384-well plate: 20 μl buffer, 50 μl Optiphiase (for MicroLux) • 5. Completely remove remaining assay buffer from cell plate • 6. Solubilize cells with 1% SDS; than add MicroScint or Optiphase • 96-well Plate: 30 μl SDS, 170 μl MicroScint 20 (for TopCount) • 384-well plate: 20 μl SDS, 50 μl Optiphiase (for MicroLux) • 7. Seal both cell and supernatant plates and count Data Calculation— […]
Compound `N#Cc1ccc2c(c1)CCC(N1CCN(C3CCc4cc(C#N)ccc4C3)C(=O)C1)C2` (centres unmarked) [Example 15, 6,6′-(2-Oxopiperazine-1,4-diyl)di(5,6,7,8-tetrahydronaphthalene-2-carbonitrile)] yielded an IC50 of 0.051 µM.

On to `N#Cc1ccc2c(c1)CCC(N1CCN(C(=O)C3CCc4cc(-n5cnnn5)ccc43)CC1=O)C2` (centres unmarked) [Example 57, 6-(2-Oxo-4-{[5-(1H-tetrazol-1-yl)-2,3-dihydro-1H-inden-1-yl]carbonyl}piperazin-1-yl)-5,6,7,8-tetrahydronaphthalene-2-carbonitrile], for which the concentration for half-maximal inhibition (IC50) was 0.8 µM.

As for `COc1cc([N+](=O)[O-])ccc1CCN1CCN(CCc2ccc3nonc3c2)C(=O)C1` [Example 10, 1-[2-(2,1,3-Benzoxadiazol-5-yl)ethyl]-4-[2-(2-methoxy-4-nitrophenyl)ethyl]piperazin-2-one], the IC50 turned out to be 0.37 µM.

`N#Cc1ccc2c(c1)CCC(N1CCN(CCc3ccc([N+](=O)[O-])c(F)c3)CC1=O)C2` (racemic) [Example 21, 6-{4-[2-(3-Fluoro-4-nitrophenyl)ethyl]-2-oxopiperazin-1-yl}-5,6,7,8-tetrahydronaphthalene-2-carbonitrile]: the IC50 was 0.12 µM.

Compound `O=C1CN(CCc2ccc([N+](=O)[O-])cc2C(F)(F)F)CCN1CCc1ccc([N+](=O)[O-])cc1` [Example 4, 1-[2-(4-Nitrophenyl)ethyl]-4-{2-[4-nitro-2-(trifluoromethyl)phenyl]ethyl}piperazin-2-one] registered an IC50 of 0.31 µM.

As for `N#Cc1ccc2c(c1)CCC(N1CCN(CCc3ccc4c(c3)COC4=O)C(=O)C1)C2` (racemic) [Example 28, 6-{3-Oxo-4-[2-(1-oxo-1,3-dihydro-2-benzofuran-5-yl)ethyl]piperazin-1-yl}-5,6,7,8-tetrahydronaphthalene-2-carbonitrile], the IC50 stood at 0.41 µM.

For `COc1cc([N+](=O)[O-])ccc1CCN1CCN(C2CCc3cc(C#N)ccc3C2)C(=O)C1` (racemic) [Example 9, 6-{4-[2-(2-Methoxy-4-nitrophenyl)ethyl]-2-oxopiperazin-1-yl}-5,6,7,8-tetrahydronaphthalene-2-carbonitrile], the IC50 is 0.08 µM.

In the case of `N#Cc1ccc(CCN2CCN(C3CCc4cc(C#N)ccc4C3)C(=O)C2)cc1` (racemic) [Example 25, 6-{4-[2-(4-Cyanophenyl)ethyl]-2-oxopiperazin-1-yl}-5,6,7,8-tetrahydronaphthalene-2-carbonitrile], the IC50 came to 0.24 µM.

Turning to `N#Cc1ccc2c(c1)CCC(N1CCN(CCc3ccc4c(c3)CCOC4=O)CC1=O)C2` (racemic) [Example 42, 6-{2-Oxo-4-[2-(1-oxo-3,4-dihydro-1H-isochromen-6-yl)ethyl]piperazin-1-yl}-5,6,7,8-tetrahydronaphthalene-2-carbonitrile], the IC50 is 0.3 µM.

For `COC(=O)c1cc([N+](=O)[O-])ccc1CCN1CCN(CCc2ccc([N+](=O)[O-])cc2)C(=O)C1` [Example 7, Methyl 5-nitro-2-(2-{4-[2-(4-nitrophenyl)ethyl]-3-oxopiperazin-1-yl}ethyl)benzoate], the IC50 was found to be 0.39 µM.

Take `N#Cc1ccc2c(c1)CCC(N1CCN(CCc3ccc4c(c3)COC4=O)CC1=O)C2` (racemic) [Example 26, 6-{2-Oxo-4-[2-(1-oxo-1,3-dihydro-2-benzofuran-5-yl)ethyl]piperazin-1-yl}-5,6,7,8-tetrahydronaphthalene-2-carbonitrile]: the IC50 turned out to be 0.03 µM.

On to `N#Cc1ccc2c(c1)CCCC2CN1CCN(CCc2ccc3c(c2)COC3=O)CC1=O` (racemic) [Example 38, 5-({2-Oxo-4-[2-(1-oxo-1,3-dihydro-2-benzofuran-5-yl)ethyl]piperazin-1-yl}methyl)-5,6,7,8-tetrahydronaphthalene-2-carbonitrile], for which 0.14 µM corresponded to half-maximal inhibition (IC50).

Compound `N#Cc1cccc2c1CCCC2CN1CCN(CCc2ccc3c(c2)COC3=O)CC1=O` (racemic) [Example 33, 5-((2-oxo-4-(2-(1-oxo-1,3-dihydroisobenzofuran-5-yl)ethyl)piperazin-1-yl)methyl)-5,6,7,8-tetrahydronaphthalene-1-carbonitrile] yielded an IC50 of 0.15 µM.

In turn, `COC(=O)c1cc(CCN2CCN(CCc3ccc([N+](=O)[O-])cc3)C(=O)C2)ccc1[N+](=O)[O-]` [Example 8, Methyl 2-nitro-5-(2-{4-[2-(4-nitrophenyl)ethyl]-3-oxopiperazin-1-yl}ethyl)benzoate] displayed an IC50 of 0.25 µM.

`O=C1CN(CCc2ccc([N+](=O)[O-])cc2)CCN1CCc1ccc([N+](=O)[O-])cc1` [Example 1, 1,4-bis[2-(4-nitrophenyl)ethyl]piperazin-2-one] gave an IC50 of 0.07 µM.

In turn, `N#Cc1ccc(CCN2CCN(CCc3ccc4c(c3)COC4=O)CC2=O)cc1Br` [Example 35] returned an IC50 of 0.17 µM.

The compound `N#Cc1cc(CCN2CCN(CC(F)c3ccc4c(c3)COC4=O)CC2=O)ccc1F` (racemic) [Example 39, 2-Fluoro-5-(2-{4-[2-fluoro-2-(1-oxo-1,3-dihydro-2-benzofuran-5-yl)ethyl]-2-oxopiperazin-1-yl}ethyl)benzonitrile] had an IC50 of 0.91 µM.

For the compound `N#Cc1ccc(CCN2CCN(CCc3ccc([N+](=O)[O-])cc3)C(=O)C2)cc1` [Example 5, 4-(2-{4-[2-(4-Nitrophenyl)ethyl]-3-oxopiperazin-1-yl}ethyl)benzonitrile], the midpoint of inhibition, the IC50, lay at 0.12 µM.

Turning to `COc1cc([N+](=O)[O-])ccc1CCN1CCN(CCc2ccc([N+](=O)[O-])cc2)C(=O)C1` [Example 11, 4-[2-(2-Methoxy-4-nitrophenyl)ethyl]-1-[2-(4-nitrophenyl)ethyl]piperazin-2-one], the IC50 stood at 0.14 µM.

For the compound `O=C1OCc2cc(CCN3CCN(CCc4ccc5nonc5c4)C(=O)C3)ccc21` [Example 27, 1-[2-(2,1,3-Benzoxadiazol-5-yl)ethyl]-4-[2-(1-oxo-1,3-dihydro-2-benzofuran-5-yl)ethyl]piperazin-2-one], the IC50 turned out to be 0.87 µM.

`N#Cc1c(F)ccc2c1CCC2CN1CCN(CCc2ccc3c(c2)COC3=O)CC1=O` (centres unmarked) [Example 34, 5-Fluoro-1-({2-oxo-4-[2-(1-oxo-1,3-dihydro-2-benzofuran-5-yl)ethyl]piperazin-1-yl}methyl)-2,3-dihydro-1H-indene-4-carbonitrile] displayed an IC50 of 0.36 µM.

In turn, `N#Cc1ccc2c(c1)CCC(N1CCN(CCc3ccc4c(c3Cl)COC4=O)CC1=O)C2` (racemic) [Example 31, 6-{4-[2-(4-Chloro-1-oxo-1,3-dihydro-2-benzofuran-5-yl)ethyl]-2-oxopiperazin-1-yl}-5,6,7,8-tetrahydronaphthalene-2-carbonitrile] gave a 50% inhibitory concentration (IC50) of 0.41 µM.

`N#Cc1ccc2c(c1)CCC(N1CCN(C(=O)Cc3ccc(-n4cnnn4)cc3)CC1=O)C2` (racemic) [Example 56, 6-(2-Oxo-4-{[4-(1H-tetrazol-1-yl)phenyl]acetyl}piperazin-1-yl)-5,6,7,8-tetrahydronaphthalene-2-carbonitrile] displayed an IC50 of 0.72 µM.
